Source: patent US20200069691A1, “HETEROCYCLIC COMPOUNDS AS HIV PROTEASE INHIBITORS” (Merck Sharp & Dohme Corp., priority 2016, published 2020)

Biological target: T1, wild-type HIV-1 protease (Human immunodeficiency virus type 1 group M subtype B, UniProt P04585)
T1 construct: Escherichia coli expressed wild-type HIV-1 protease protein
Experiment: Assay for Inhibition of Microbial Expressed HIV Protease (peptide substrate cleavage, LC-MS/MS readout)
Format: biochemical
Conditions: E. coli expressed wild-type HIV-1 protease, mean of at least two independent experiments, read-out: HIV Pr Enzyme HIV1 PR IC50
In short: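 E. coli-expressed wild-type HIV-1 protease ([…]) was preincubated with inhibitor 30 min at room temperature in pH 5.5 acetate buffer (100 mM NaCl, 0.1% BSA). Then 400 μM octapeptide substrate was added and reacted 1 h at 30 °C; inhibition came from LC-MS/MS product peak areas, mean of ≥2 experiments.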

Compound	IC50
COC(=O)Nc1ncc2c(n1)CN(C(=O)c1cc([C@@H](C)N3C(=N)N[C@](CCC(C)C)(c4ccccc4)C3=O)ccc1C(F)(F)F)C2 [Compound 135, methyl (6-{[5-{(1R)-1-[(4R)-2-imino-4-(3-methylbutyl)-5-oxo-4-phenylimidazolidin-1-yl]ethyl}-2-(trifluoromethyl)phenyl]carbonyl}-6,7-dihydro-5H-pyrrolo[3,4-d]pyrimidin-2-yl)carbamate]	1.28 nM
N#Cc1ncc2c(n1)CN(C(=O)c1cc(CN3C(=N)NC(c4ccccc4)(c4ccccc4)C3=O)ccc1C(F)(F)F)C2 [Compound 136, 6-({5-[(2-imino-5-oxo-4,4-diphenylimidazolidin-1-yl)methyl]-2-(trifluoromethyl)phenyl}-carbonyl)-6,7-dihydro-5H-pyrrolo[3,4-d]pyrimidine-2-carbonitrile]	1.81 nM
COC(=O)Nc1ncc2c(n1)CN(C(=O)c1cc(CN3C(=N)NC(CCC(C)C)(c4ccccc4)C3=O)ccc1C(F)(F)F)C2 (stereo not shown) [Compound 137, methyl (6-{[5-{[2-imino-4-(3-methylbutyl)-5-oxo-4-phenylimidazolidin-1-yl]methyl}-2-(trifluoromethyl)phenyl]carbonyl}-6,7-dihydro-5H-pyrrolo[3,4-d]pyrimidin-2-yl)carbamate]	1.88 nM
N=C1NC(c2ccc(F)cc2)(c2ccc(F)cc2)C(=O)N1Cc1ccc(C(F)(F)F)c(C(=O)N2Cc3cncnc3C2)c1 [Compound 138, 3-[3-(5,7-dihydro-6H-pyrrolo[3,4-d]pyrimidin-6-ylcarbonyl)-4-(trifluoromethyl)benzyl]-5,5-bis(4-fluorophenyl)-2-iminoimidazolidin-4-one]	2.78 nM
N=C1NC(c2ccc(F)cc2)(c2ccc(F)cc2)C(=O)N1Cc1ccc(C(F)(F)F)c(C(=O)N2Cc3nccnc3C2)c1 [Compound 139, 3-[3-(5,7-dihydro-6H-pyrrolo[3,4-b]pyrazin-6-ylcarbonyl)-4-(trifluoromethyl)benzyl]-5,5-bis(4-fluorophenyl)-2-iminoimidazolidin-4-one]	2.93 nM
CC(C)CC1(c2ccccc2)NC(=N)N(Cc2ccc(C(F)(F)F)c(C(=O)N3Cc4cnc(C#N)nc4C3)c2)C1=O (stereo not shown) [Compound 140, 6-{[5-{[2-imino-4-(2-methylpropyl)-5-oxo-4-phenylimidazolidin-1-yl]methyl}-2-(trifluoromethyl)phenyl]carbonyl}-6,7-dihydro-5H-pyrrolo[3,4-d]pyrimidine-2-carbonitrile]	2.93 nM
CC(C)CC[C@]1(c2ccccc2)NC(=N)N([C@H](C)c2ccc(C(F)(F)F)c(C(=O)N3Cc4nccnc4C3)c2)C1=O [Compound 141, (5R)-3-{(1R)-1-[3-(5,7-dihydro-6H-pyrrolo[3,4-b]pyrazin-6-ylcarbonyl)-4-(trifluoromethyl)phenyl]ethyl}-2-imino-5-(3-methylbutyl)-5-phenylimidazolidin-4-one]	3.04 nM
CC(C)CC1(c2ccccc2)NC(=N)N(Cc2ccc(C(F)(F)F)c(C(=O)N3Cc4nccnc4C3)c2)C1=O (stereo not shown) [Compound 142, 3-[3-(5,7-dihydro-6H-pyrrolo[3,4-b]pyrazin-6-ylcarbonyl)-4-(trifluoromethyl)benzyl]-2-imino-5-(2-methylpropyl)-5-phenylimidazolidin-4-one]	3.23 nM
N=C1NC(c2ccccc2)(c2ccccc2)C(=O)N1Cc1ccc(C(F)(F)F)c(C(=O)N2Cc3nccnc3C2)c1 [Compound 143, 3-[3-(5,7-dihydro-6H-pyrrolo[3,4-b]pyrazin-6-ylcarbonyl)-4-(trifluoromethyl)benzyl]-2-imino-5,5-diphenylimidazolidin-4-one]	3.43 nM
CC(C)CCC1(c2ccc(F)cc2)NC(=N)N(Cc2ccc(C(F)(F)F)c(C(=O)N3Cc4cncnc4C3)c2)C1=O (stereo not shown) [Compound 144, 3-[3-(5,7-dihydro-6H-pyrrolo[3,4-d]pyrimidin-6-ylcarbonyl)-4-(trifluoromethyl)benzyl]-5-(4-fluorophenyl)-2-imino-5-(3-methylbutyl)imidazolidin-4-one]	3.73 nM
N=C1NC(c2ccccc2)(c2ccccc2)C(=O)N1Cc1ccc(C(F)(F)F)c(C(=O)N2Cc3cncnc3C2)c1 [Compound 145, 3-[3-(5,7-dihydro-6H-pyrrolo[3,4-d]pyrimidin-6-ylcarbonyl)-4-(trifluoromethyl)benzyl]-2-imino-5,5-diphenylimidazolidin-4-one]	4.03 nM
CC(C)CCC1(c2ccc(F)cc2)NC(=N)N(Cc2ccc(C(F)(F)F)c(C(=O)N3Cc4nccnc4C3)c2)C1=O (stereo not shown) [Compound 146, 3-[3-(5,7-dihydro-6H-pyrrolo[3,4-b]pyrazin-6-ylcarbonyl)-4-(trifluoromethyl)benzyl]-5-(4-fluorophenyl)-2-imino-5-(3-methylbutyl)imidazolidin-4-one]	4.07 nM
CC(C)C[C@]1(c2ccccc2)NC(=N)N([C@H](C)c2ccc(C(F)(F)F)c(C(=O)N3Cc4nccnc4C3)c2)C1=O [Compound 147, (5R)-3-{(1R)-1-[3-(5,7-dihydro-6H-pyrrolo[3,4-b]pyrazin-6-ylcarbonyl)-4-(trifluoromethyl)phenyl]ethyl}-2-imino-5-(2-methylpropyl)-5-phenylimidazolidin-4-one]	4.75 nM
CC(C)CCC1(c2ccccc2)NC(=N)N(Cc2ccc(C(F)(F)F)c(C(=O)N3Cc4cnc(C#N)nc4C3)c2)C1=O (stereo not shown) [Compound 148, 6-{[5-{[2-imino-4-(3-methylbutyl)-5-oxo-4-phenylimidazolidin-1-yl]methyl}-2-(trifluoromethyl)phenyl]carbonyl}-6,7-dihydro-5H-pyrrolo[3,4-d]pyrimidine-2-carbonitrile]	5.21 nM
CC(C)C[C@]1(c2ccccc2)NC(=N)N(Cc2ccc(C(F)(F)F)c(C(=O)N3Cc4nccnc4C3)c2)C1=O [Compound 149, (5R)-3-[3-(5,7-dihydro-6H-pyrrolo[3,4-b]pyrazin-6-ylcarbonyl)-4-(trifluoromethyl)-benzyl]-2-imino-5-(2-methylpropyl)-5-phenyl-imidazolidin-4-one]	5.24 nM
CC(C)CC1(c2ccccc2)NC(=N)N(Cc2ccc(C(F)(F)F)c(C(=O)N3Cc4cncnc4C3)c2)C1=O (stereo not shown) [Compound 150, 3-[3-(5,7-dihydro-6H-pyrrolo[3,4-d]pyrimidin-6-ylcarbonyl)-4-(trifluoromethyl)benzyl]-2-imino-5-(2-methylpropyl)-5-phenylimidazolidin-4-one]	5.49 nM
CC(C)CCC1(c2ccccc2)NC(=N)N(Cc2ccc(C(F)(F)F)c(C(=O)N3Cc4nccnc4C3)c2)C1=O (stereo not shown) [Compound 151, 3-[3-(5,7-dihydro-6H-pyrrolo[3,4-b]pyrazin-6-ylcarbonyl)-4-(trifluoromethyl)benzyl]-2-imino-5-(3-methylbutyl)-5-phenylimidazolidin-4-one]	6.62 nM
CC(C)CCC1(c2ccccc2)NC(=N)N(Cc2ccc(C(F)(F)F)c(C(=O)N3Cc4cncnc4C3)c2)C1=O (stereo not shown) [Compound 152, 3-[3-(5,7-dihydro-6H-pyrrolo[3,4-d]pyrimidin-6-ylcarbonyl)-4-(trifluoromethyl)benzyl]-2-imino-5-(3-methylbutyl)-5-phenylimidazolidin-4-one]	7.8 nM
CN1CCN(C(=O)c2cc(CN3C(=N)NC(c4ccccc4)(c4ccccc4)C3=O)ccc2C(F)(F)F)CC1=O [Compound 153, 4-({5-[(2-imino-5-oxo-4,4-diphenylimidazolidin-1-yl)methyl]-2-(trifluoromethyl)phenyl}-carbonyl)-1-methylpiperazin-2-one]	10.1 nM
COc1ccc2c(c1)CCN(C(=O)c1cc(CN3C(=N)NC(CCC(C)C)(c4ccccc4)C3=O)ccc1C(F)(F)F)CC2 (stereo not shown) [Compound 154, 2-imino-3-{3-[(7-methoxy-1,2,4,5-tetrahydro-3H-3-benzazepin-3-yl)carbonyl]-4-(trifluoromethyl)-benzyl}-5-(3-methylbutyl)-5-phenylimidazolidin-4-one]	10.2 nM
CC(C)CCC1(c2ccccc2)NC(=N)N(Cc2ccc(C(F)(F)F)c(C(=O)N3CCC(n4c(=O)[nH]c5ccccc54)CC3)c2)C1=O (stereo not shown) [Compound 155, 1-(1-{[5-{[2-imino-4-(3-methylbutyl)-5-oxo-4-phenyl-imidazolidin-1-yl]methyl}-2-(trifluoromethyl)phenyl]carbonyl}piperidin-4-yl)-1,3-dihydro-2H-benzimidazol-2-one]	11.3 nM
CC(C)CC1(c2ccccc2)NC(=N)N(Cc2ccc(C(F)(F)F)c(C(=O)N3CCN(C)C(=O)C3)c2)C1=O (stereo not shown) [Compound 156, 4-{[5-{[2-imino-4-(2-methylpropyl)-5-oxo-4-phenylimidazolidin-1-yl]methyl}-2-(trifluoromethyl)phenyl]carbonyl}-1-methylpiperazin-2-one]	13.5 nM
CN1CCN(C(=O)c2cc(CN3C(=N)NC(c4ccc(F)cc4)(c4ccc(F)cc4)C3=O)ccc2C(F)(F)F)CC1=O [Compound 157, 4-{[5-{[4,4-bis(4-fluorophenyl)-2-imino-5-oxoimidazolidin-1-yl]methyl}-2-(trifluoromethyl)phenyl]carbonyl}-1-methylpiperazin-2-one]	14.1 nM
CC(C)CCC1(c2ccc(F)cc2)NC(=N)N(Cc2ccc(C(F)(F)F)c(C(=O)N3Cc4nc(-c5ccccc5)oc4C3)c2)C1=O (stereo not shown) [Compound 158, 5-(4-fluorophenyl)-2-imino-5-(3-methylbutyl)-3-{3-[(2-phenyl-4,6-dihydro-5H-pyrrolo[3,4-d][1,3]oxazol-5-yl)carbonyl]-4-(trifluoromethyl)benzyl} imidazolidin-4-one]	15.8 nM
CC(C)CCC1(c2ccc(F)cc2)NC(=N)N(Cc2ccc(C(F)(F)F)c(C(=O)N3C[C@@H]4C(=O)NC(=O)[C@]4(c4ccccc4)C3)c2)C1=O (stereo partly drawn) [Compound 159, (3aR,6aR)-5-{[5-{[4-(4-fluorophenyl)-2-imino-4-(3-methylbutyl)-5-oxoimidazolidin-1-yl]methyl}-2-(trifluoromethyl)-phenyl]carbonyl}-3a-phenyltetrahydropyrrolo [3,4-c]pyrrole-1,3 (2H,3aH)-dione]	15.9 nM
